Here are results for one compound from EP1733731A1, “New uses of Glycerol derivatives in particular in cosmetics” (AGRO INDUSTRIE RECHERCHES ET DEVELOPPEMENTS (A.R.D.), priority 2005, dated 2006).

For the experiment, the target named is T1, MMP-1 (Homo sapiens, UniProt P03956).
T1 construct: La proMMP-1 recombinante (75 ng/mL) est activée par l'APMA
T1 sequence (P03956 100-469): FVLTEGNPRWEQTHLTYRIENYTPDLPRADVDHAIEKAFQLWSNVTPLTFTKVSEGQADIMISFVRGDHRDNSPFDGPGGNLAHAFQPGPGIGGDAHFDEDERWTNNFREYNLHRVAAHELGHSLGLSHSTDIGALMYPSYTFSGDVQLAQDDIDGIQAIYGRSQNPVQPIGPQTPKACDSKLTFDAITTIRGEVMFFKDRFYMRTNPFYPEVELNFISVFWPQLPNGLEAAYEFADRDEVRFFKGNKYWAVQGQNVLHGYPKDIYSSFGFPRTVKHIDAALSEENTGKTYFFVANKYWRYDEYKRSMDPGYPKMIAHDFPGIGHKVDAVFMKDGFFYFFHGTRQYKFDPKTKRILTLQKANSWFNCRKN
The experiment in a line: MMP-1 activity on fluorescent synthetic substrate (FRET). The experiment is classed as biochemical. An excerpt: La mesure de l'activité enzymatique des MMPs est basée sur le principe du transfert d'énergie par résonance, RET ou transfert d'énergie de fluorescence par résonance, FRET. Le substrat est constitué d'un oligopeptide comportant un groupement fluorescent (F), donneur d'énergie et un groupement éteignant (Q, pour quenching), accepteur d'énergie. Après hydrolyse, le groupement éteignant est libéré, permettant de mesurer l'augmentation de fluorescence.
De nombreux couples fluorescent/éteignant ont été développés pour la mesure de l'activité enzymatique des MMPs comme le couple 7-méthoxycoumarine-4-acétyl (Mca)/dinitrophenyl-diaminopropionyl (Dnp).
Après activation, la MMP-1 est pré-incubée à +20°C pendant 10 minutes en absence ou en présence d'effecteurs dans un tampon Tris-HCl 50 mM, NaCl 150 mM, CaCl2 5 mM pH 7,5 en plaque 96 puits noire dont les sites de liaisons non-spécifiques ont été bloqués à l'aide d'une solution de SAB à 0,1% (p/v) dans le même tampon. La réaction est initiée par addition de 10 µL de substrat à la concentration finale de 2 µM dans un volume réactionnel final de 200 µL. Les variations de fluorescence (λ excitation : 360 nm, λ émission : 465 nm) au cours du temps sont suivies à l'aide d'un spectrofluorimètre lecteur de plaque HTS 7000+ à +20°C. La courbe représentant la fluorescence (en RFU) en fonction du temps (en minutes) est tracée.
Les intensités de fluorescence obtenues permettent d'estimer là vitesse initiale de l'enzyme en absence d'effecteur (V0) et en présence d'inhibiteur (Vi). […]
La proMMP-1 recombinante (75 ng/mL) est activée par l'APMA (Acide Phényl Mercurique Acétate). […] Le clivage de ce substrat est estimé par mesure de la fluorescence libérée (λexc = 360 nm; λem = 465 nm) à l'aide d'un spectrofluorimètre lecteur de plaques de type Perkin Elmer HTS 7000 Plus. Les intensités de fluorescence obtenues permettent d'estimer la vitesse initiale de l'enzyme en l'absence d'effecteur (Vo) et en présence d'inhibiteur (Vi). […]

Structures are written as SMILES.

In the case of `CCCCC/C=C\C/C=C\CCCCCCCCOC[C@H](CO[C@@H]1O[C@H](COC(=O)CCCCCCCCCCCCCCC)[C@H](O)[C@H](O)[C@H]1O)OCCCCCCCC/C=C\C/C=C\CCCCC` [ED23-11, 1,2-di-O-linoléyl-3-O-[6'-O-palmitoyl-β-D-galactopyranosyl]-sn-glycérol], where the note is “25 µg/mL, read-out: Inhibition de MMP-1 (%)”, the inhibition at 25 µg/mL was 42 ± 0.87%. In addition, the “Action sur l'activité de la MMP-1 (Vi/V0) à isoconcentration” value (at isoconcentration) was determined as 168. Further, the “Augmentation d'activité” value (inhibition of type I collagenase, increase from one fractionation step to the next) was 2,72.
